Laboratory results reported in BindingDB's records for doi:10.1016/j.ejmech.2018.08.031 (Wenzhou Medical University, 2018).

Assay: Inhibition of recombinant human GST-tagged EGFR L858R mutant cytoplasmic domain expressed in baculovirus expression system using FAM-labeled peptide as substrate after 10 mins by mobility shift assay

SMILES | IC50 [nM]
COc1cc(Nc2cc(Nc3ccc(Cl)cc3)ncn2)cc(OC)c1OC | > 10000
CCOc1ccc(Nc2cc(NC(=O)c3ccccc3)ncn2)cc1 | 1210
O=C(O)CCCC(=O)Nc1cc(N2CCOCC2)ncn1 | 27
COc1ccc(OC)c(Nc2cc(NC(=O)CCCC(=O)O)ncn2)c1 | > 10000
COc1ccc(OC)c(Nc2cc(NCCc3cccs3)ncn2)c1 | 167
COc1cccc(Nc2cc(NC(=O)CCCC(=O)O)ncn2)c1 | 31
COc1cccc(Nc2cc(Nc3ccc(S(N)(=O)=O)cc3)ncn2)c1 | 1850
COc1ccc(OC)c(Nc2cc(Nc3ccc(N4CCN(C)CC4)cc3)ncn2)c1 | 167
COc1ccc(Nc2cc(NC(=O)c3ccccc3)ncn2)cc1 | 60
O=C(O)CCCC(=O)Nc1cc(Nc2ccc(Cl)cc2)ncn1 | 1320
O=C(O)CCCC(=O)Nc1cc(Nc2cccc(Br)c2)ncn1 | > 10000
COc1ccc(OC)c(Nc2cc(Nc3ccc(S(N)(=O)=O)cc3)ncn2)c1 | 619
CCNc1cc(Nc2cccc(Cl)c2)ncn1 | > 10000
CCOC(=O)c1ccc(Nc2cc(Nc3cccc(OC)c3)ncn2)cc1 | 1740
COc1ccc(OC)c(Nc2cc(Nc3ccc(F)cc3)ncn2)c1 | 230
O=C(Nc1cc(Nc2ccc(Cl)cc2)ncn1)c1ccc(F)cc1 | 1610
O=C(O)CCCC(=O)Nc1cc(Nc2ccccc2)ncn1 | 183
CCOC(=O)c1ccc(Nc2cc(NC(=O)CCCC(=O)O)ncn2)cc1 | 69
CCOC(=O)CCC(=O)Nc1cc(Nc2cccc(Br)c2)ncn1 | 1340
CCOC(=O)CCCC(=O)Nc1cc(Nc2cccc(Cl)c2)ncn1 | > 10000
COc1cccc(Nc2cc(Nc3cccc(Cl)c3)ncn2)c1 | 1570
